Data taken from patent publication US20130210852A1, “METHODS FOR TREATING INFECTION” (priority 2010, published 2013).
Converted amounts (≈) assume the structure as drawn.

Columns and labels:
HEp-2 cells = experiment: Cytokine arrays of HEp-2 supernatants (Panomics); conditions: antibiotic 64 μg/ml, 24 h
[1] = test system: EAEC strain O42 adherence to HEp-2 cells; experiment: HEp-2 cell attachment assay (microscopy after Wright-Giemsa staining); type: cell-based, human
C difficile = experiment: Susceptibility testing of C difficile isolates (rifaximin agar dilution, rifampin E strips)
[2] = test system: EAEC adherence with dialyzed conditioned medium of HEp-2 cells; experiment: Effect of dialyzed HEp-2 supernatants on EAEC adherence; type: cell-based, human; parameters: dose or concentration left out as unconfirmed; conditions: HEp-2 treated 24 h, supernatant dialyzed; chambers with or without HEp-2 cells, 3 h
Description: HEp-2 cells were cultured in T-175 flasks as described above. […] After 24 h, the medium was collected, loaded into regenerated cellulose dialysis tubing (cutoff, 6 to 8 kDa; Spectra/Por, Rancho Domiguez, Calif.), and dialyzed against 4 liters of PBS changed four times. Each dialysis step lasted at least 6 h and was carried out at 4° C. Dialyzed supernatants were either used immediately in adherence assays or stored at −20° C. until use.
The effect of supernatants on EAEC adherence was determined by mixing EAEC with the dialyzed media from the different antibiotic (or control) treatment groups and adding the bacteria to HEp-2 cells cultured in chambered slides or to chambered slides with no HEp-2 cells. Adherence was visualized microscopically as described above.

## CO[C@H]1/C=C/O[C@@]2(C)Oc3c(C)c(O)c4c(O)c(c(/C=N/N5CCN(C)CC5)c(O)c4c3C2=O)NC(=O)/C(C)=C\C=C\[C@H](C)[C@H](O)[C@@H](C)[C@@H](O)[C@@H](C)[C@H](OC(C)=O)[C@@H]1C [Rifampin]
HEp-2 cells
  cytokine profile of HEp-2 supernatants: had the same profile, except that MIP5 was not detected
[1]
  EAEC O42 adherence to HEp-2 cells (microscopy): adhered in the traditional stacked-brick formation
C difficile; 359 isolates
  MIC50 against C difficile: <2 ng/mL
  MIC90 against C difficile: 4 µg/mL (≈ 4860 nM)
C difficile; 359 isolates, listed as rifampin
  MIC50 against C difficile: < 2 ng/mL
C difficile; genotype A +, B +, BT +, tcdC-del +
  Isolates resistant to rifampin (n = 28), (%): (7) %
C difficile; genotype A +, B +, BT +, tcdC-del −
  Isolates resistant to rifampin (n = 28), (%): (14) %
C difficile; genotype A +, B +, BT −, tcdC-del +
  Isolates resistant to rifampin (n = 28), (%): (18) %
C difficile; genotype A +, B +, BT −, tcdC-del −
  Isolates resistant to rifampin (n = 28), (%): (46) %
C difficile; genotype A −, B −, BT −, tcdC-del −
  Isolates resistant to rifampin (n = 28), (%): (14) %
[2]
  EAEC adherence after mixing with dialyzed supernatants of antibiotic-treated HEp-2 cells: adhered to chambers independently of the presence of HEp-2 cells
